Source: patent US20080260653A1, “Transdermal Delivery Systems and Transdermal Chelation Preparations” (priority 2004, published 2008)

Experiment: Thermal stability and activity test of chelators (copper oxide removal test)
Assay type: physicochemical
Settings: 143 degrees F. for 5 minutes
Procedure: A fresh copper surface is prepared. The surface is gently heat oxidized. Next, the chelation quality was determined. About 0.0001 grams per drop (or 0.0029 g/ml) chelator effectively removed all the oxide form 1 cm sq in two minutes at a temperature of 98-99 degrees F. Then, the solution was diluted at 10% intervals to determine the point where it would not remove the oxide. There was a step wise decrease in chelation effect across the Cu test sample plate. A standard of chelation was graphed, see FIGS. 1 and 2.
A similar test is used for thermal stability and activity. […] Also, the identical test is used to determine batch activity. A crude field test is to put the chelator on a penny and heat to 98 degrees.

SMILES | inactive (loss of chelator activity on heating) [%]
O=S(=O)([O-])CC(S)CS.[Na+] (centres unmarked) [DMPS, 2,3-dimercaptopropanesulphonate sodium] | 100
O=C(O)CN(CCN(CC(=O)O)CC(=O)O)CC(=O)O [EDTA, ethylenediamine-N,N,N′,N′-tetraacetic acid] | 100
